Measured values published in ChEMBL document CHEMBL3352625, “Development of novel neurokinin 3 receptor (NK3R) selective agonists with resistance to proteolytic degradation” (J Med Chem, 2014).

Columns and labels:
[1] = Agonist activity at cattle NK3R; set-up: species or system Bos taurus
[2] = Agonist activity at goat NK3R; set-up: species or system Capra hircus
[3] = Induction of GnRH release in ovariectomized goat assessed as induction of multiple-unit activity volley measured as duration of effect at 200 nmol, iv as single dose; format: functional, Capra hircus
Serum [4] = assay: Metabolic stability in rat serum up to 24 hrs by HPLC analysis; format: ADME, cell-free
Serum [5] = assay: Metabolic stability in cattle serum up to 24 hrs by HPLC analysis; format: ADME, Bos taurus
[6] = Metabolic stability in pig serum up to 24 hrs by HPLC analysis; format: ADME, Sus scrofa
[7] = Metabolic stability in goat serum up to 24 hrs by HPLC analysis; format: ADME, Capra hircus
[8] = Metabolic stability in pig hypothalamic extract by HPLC analysis; format: ADME, Sus scrofa, Hypothalamus
NEP 24.11 (neprilysin) = NEP 24.11 (neprilysin) (Homo sapiens, UniProt P08473); assay: Drug metabolism assessed as NEP 24.11 (unknown origin)-mediated degradation up to 24 hrs by HPLC analysis; format: ADME; settings: NEP 24.11 (neprilysin) enzyme, read-out: Drug metabolism
Neprilysin [9] = biological target: T1, Neprilysin (Homo sapiens, UniProt P08473); assay: Drug metabolism assessed as NEP 24.11 (unknown origin)-mediated Succinyl-Asp-Phe-MePhe-Gly-OH up to 24 hrs by HPLC analysis; format: ADME
Neprilysin [10] = biological target: T1, Neprilysin; assay: Drug metabolism assessed as NEP 24.11 (unknown origin)-mediated H-Leu-Met-NH2 up to 24 hrs by HPLC analysis; format: ADME

T1 sequence (P08473 whole entry): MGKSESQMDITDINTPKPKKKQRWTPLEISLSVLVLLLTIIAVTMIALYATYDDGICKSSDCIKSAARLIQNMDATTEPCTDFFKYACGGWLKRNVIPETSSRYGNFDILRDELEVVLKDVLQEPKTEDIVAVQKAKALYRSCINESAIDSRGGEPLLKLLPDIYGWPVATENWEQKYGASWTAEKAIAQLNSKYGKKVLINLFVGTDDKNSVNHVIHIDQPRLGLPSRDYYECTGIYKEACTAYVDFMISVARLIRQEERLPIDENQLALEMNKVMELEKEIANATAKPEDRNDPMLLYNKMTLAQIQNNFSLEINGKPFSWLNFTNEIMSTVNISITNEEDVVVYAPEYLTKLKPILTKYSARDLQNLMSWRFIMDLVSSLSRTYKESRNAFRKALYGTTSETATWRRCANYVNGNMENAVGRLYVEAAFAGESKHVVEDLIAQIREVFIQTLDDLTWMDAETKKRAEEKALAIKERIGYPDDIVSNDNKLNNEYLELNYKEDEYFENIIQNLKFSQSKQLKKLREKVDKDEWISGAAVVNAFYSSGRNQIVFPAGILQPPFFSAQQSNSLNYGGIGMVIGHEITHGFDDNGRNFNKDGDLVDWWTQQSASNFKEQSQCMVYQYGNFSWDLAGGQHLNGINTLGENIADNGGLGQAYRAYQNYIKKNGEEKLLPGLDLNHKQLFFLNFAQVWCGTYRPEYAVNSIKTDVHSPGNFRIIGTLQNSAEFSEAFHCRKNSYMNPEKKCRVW
Chain of NEP 24.11 (neprilysin) (P08473 whole entry): as above

- EC50 [1]: 340 nM
- EC50 [2]: 12 nM
- Stability (Serum [4]): Stable
- Stability (Serum [5]): Stable
- Stability [6]: Stable
- Stability [7]: Stable
- Stability [8]: Stable
- metabolised at 24 h (NEP 24.11 (neprilysin)): > 80%
- Drug metabolism (Neprilysin [9]): metabolite_detected
- Drug metabolism (Neprilysin [10]): metabolite_detected
Structure (SMILES): CSCC[C@H](NC(=O)[C@H](CC(C)C)NC(=O)CNC(=O)[C@H](Cc1ccccc1)N(C)C(=O)[C@H](Cc1ccccc1)NC(=O)[C@H](CC(=O)O)NC(=O)CCC(=O)O)C(N)=O [SENKTIDE]
- Time [3]: 60.6 min
